Reference: patent publication US20110039721A1, “METHOD FOR PREDICTION ABOUT CARCINOGENICITY OF SUBSTANCE IN RODENT” (Chemicals Evaluation and Research Institute, priority 2007, published 2011)
Where two headings read alike, the source gives them in different places.

Columns and labels:
rodent = settings: cited from earlier work
liver = settings: cited from earlier work
[1] = tested on: mRNA expressed from the genes (A) to (D) in rat liver; assay: Behavior of genes (mRNA expression level, oligo-DNA microarray) in rat liver after 28-day oral administration; assay type: in vivo
In short: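 Liver mRNA measured by oligo-DNA microarray after 28 days of once-daily oral gavage in 5-week-old male F344 rats (n=4 per group), with vehicle controls given equal solvent volume. Significance threshold: 1.5-fold up or down versus control, with changes opposite in direction to other carcinogens counted as not significant.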

[2] = cited from earlier work
[3] = gene group (A), Unigene No. Rn.167075
[4] = gene group (C), Unigene No. Rn.120914

O=C([O-])c1ccccc1.[Na+] [TS084, Sodium benzoate]
+: Behavior of gene caused by administration of chemical substance, Gene No. 6182 ([1]; gene group (A), Unigene No. Rn.5834) | Behavior of gene caused by administration of chemical substance, Gene No. 1494 ([1]; gene group (B), Unigene No. Rn.1430) | Behavior of gene caused by administration of chemical substance, Gene No. 533 ([1]; gene group (C), Unigene No. Rn.106184) | Behavior of gene caused by administration of chemical substance, Gene No. 4973 ([1]; gene group (C), Unigene No. Rn.118529) | Behavior of gene caused by administration of chemical substance, Gene No. 6742 ([1]; gene group (C), Unigene No. Rn.9779)
C−: Carcinogenicity (rodent; classification of the substance (C+/C−))
Cr−: Liver carcinogenicity (liver; classification of the substance (Cr+/Cr−))
M−: Mutagenicity by Ames test ([2]; classification of the substance (M+/M−))
−: Behavior of gene caused by administration of chemical substance, Gene No. 4846 ([1]; gene group (A), Unigene No. Rn.144554) | Behavior of gene caused by administration of chemical substance, Gene No. 2026 [1, 3] | Behavior of gene caused by administration of chemical substance, Gene No. 4218 [1, 3] | Behavior of gene caused by administration of chemical substance, Gene No. 5600 ([1]; gene group (A), Unigene No. Rn.9836) | Behavior of gene caused by administration of chemical substance, Gene No. 2045 ([1]; gene group (B), Unigene No. Rn.19329) | Behavior of gene caused by administration of chemical substance, Gene No. 2203 ([1]; gene group (B), Unigene No. Rn.21240) | Behavior of gene caused by administration of chemical substance, Gene No. 725 ([1]; gene group (C), Unigene No. Rn.108075) | Behavior of gene caused by administration of chemical substance, Gene No. 1163 ([1]; gene group (C), Unigene No. Rn.11766) | Behavior of gene caused by administration of chemical substance, Gene No. 4095 ([1]; gene group (C), Unigene No. Rn.119024) | Behavior of gene caused by administration of chemical substance, Gene No. 1334 [1, 4] | Behavior of gene caused by administration of chemical substance, Gene No. 6620 [1, 4] | Behavior of gene caused by administration of chemical substance, Gene No. 6303 ([1]; gene group (C), Unigene No. Rn.123063) | Behavior of gene caused by administration of chemical substance, Gene No. 5878 ([1]; gene group (C), Unigene No. Rn.143213) | Behavior of gene caused by administration of chemical substance, Gene No. 1131 ([1]; gene group (C), Unigene No. Rn.144946) | Behavior of gene caused by administration of chemical substance, Gene No. 1562 ([1]; gene group (C), Unigene No. Rn.14744) | Behavior of gene caused by administration of chemical substance, Gene No. 1741 ([1]; gene group (C), Unigene No. Rn.1647) | Behavior of gene caused by administration of chemical substance, Gene No. 893 ([1]; gene group (C), Unigene No. Rn.164817) | Behavior of gene caused by administration of chemical substance, Gene No. 6026 ([1]; gene group (C), Unigene No. Rn.167685) | Behavior of gene caused by administration of chemical substance, Gene No. 154 ([1]; gene group (C), Unigene No. Rn.185941) | Behavior of gene caused by administration of chemical substance, Gene No. 1993 ([1]; gene group (C), Unigene No. Rn.18728) | Behavior of gene caused by administration of chemical substance, Gene No. 813 ([1]; gene group (C), Unigene No. Rn.201760) | Behavior of gene caused by administration of chemical substance, Gene No. 2494 ([1]; gene group (C), Unigene No. Rn.23969) | Behavior of gene caused by administration of chemical substance, Gene No. 2546 ([1]; gene group (C), Unigene No. Rn.24561) | Behavior of gene caused by administration of chemical substance, Gene No. 3776 ([1]; gene group (C), Unigene No. Rn.43232) | Behavior of gene caused by administration of chemical substance, Gene No. 3929 ([1]; gene group (C), Unigene No. Rn.4620) | Behavior of gene caused by administration of chemical substance, Gene No. 1119 ([1]; gene group (C), Unigene No. Rn.9757) | Behavior of gene caused by administration of chemical substance, Gene No. 5634 ([1]; gene group (C), Unigene No. Rn.9862) | Behavior of gene caused by administration of chemical substance, Gene No. 5726 ([1]; gene group (D), Unigene No. Rn.9939)

C=CCc1ccc(OC)c(OC)c1 [TS086, Methyleugenol]
−: Behavior of gene caused by administration of chemical substance ([1]; Gene No. 154, Rn.185941, group (C)) | Behavior of gene caused by administration of chemical substance ([1]; Gene No. 725, Rn.108075, group (C)) | Behavior of gene caused by administration of chemical substance ([1]; Gene No. 813, Rn.201760, group (C)) | Behavior of gene caused by administration of chemical substance ([1]; Gene No. 893, Rn.164817, group (C)) | Behavior of gene caused by administration of chemical substance ([1]; Gene No. 1119, Rn.9757, group (C)) | Behavior of gene caused by administration of chemical substance ([1]; Gene No. 1131, Rn.144946, group (C)) | Behavior of gene caused by administration of chemical substance ([1]; Gene No. 1163, Rn.11766, group (C)) | Behavior of gene caused by administration of chemical substance ([1]; Gene No. 1334, Rn.120914, group (C)) | Behavior of gene caused by administration of chemical substance ([1]; Gene No. 1494, Rn.1430, group (B)) | Behavior of gene caused by administration of chemical substance ([1]; Gene No. 1562, Rn.14744, group (C)) | Behavior of gene caused by administration of chemical substance ([1]; Gene No. 1741, Rn.1647, group (C)) | Behavior of gene caused by administration of chemical substance ([1]; Gene No. 1993, Rn.18728, group (C)) | Behavior of gene caused by administration of chemical substance ([1]; Gene No. 2026, Rn.167075, group (A)) | Behavior of gene caused by administration of chemical substance ([1]; Gene No. 2045, Rn.19329, group (B)) | Behavior of gene caused by administration of chemical substance ([1]; Gene No. 2203, Rn.21240, group (B)) | Behavior of gene caused by administration of chemical substance ([1]; Gene No. 2494, Rn.23969, group (C)) | Behavior of gene caused by administration of chemical substance ([1]; Gene No. 2546, Rn.24561, group (C)) | Behavior of gene caused by administration of chemical substance ([1]; Gene No. 3776, Rn.43232, group (C)) | Behavior of gene caused by administration of chemical substance ([1]; Gene No. 3929, Rn.4620, group (C)) | Behavior of gene caused by administration of chemical substance ([1]; Gene No. 4095, Rn.119024, group (C)) | Behavior of gene caused by administration of chemical substance ([1]; Gene No. 4218, Rn.167075, group (A)) | Behavior of gene caused by administration of chemical substance ([1]; Gene No. 4973, Rn.118529, group (C)) | Behavior of gene caused by administration of chemical substance ([1]; Gene No. 5634, Rn.9862, group (C)) | Behavior of gene caused by administration of chemical substance ([1]; Gene No. 5726, Rn.9939, group (D)) | Behavior of gene caused by administration of chemical substance ([1]; Gene No. 5878, Rn.143213, group (C)) | Behavior of gene caused by administration of chemical substance ([1]; Gene No. 6026, Rn.167685, group (C)) | Behavior of gene caused by administration of chemical substance ([1]; Gene No. 6303, Rn.123063, group (C)) | Behavior of gene caused by administration of chemical substance ([1]; Gene No. 6620, Rn.120914, group (C)) | Behavior of gene caused by administration of chemical substance ([1]; Gene No. 6742, Rn.9779, group (C))
Cr+: Liver carcinogenicity (liver; classification Cr+/Cr−)
C+: Carcinogenicity (rodent; classification C+/C−)
M−: Mutagenicity by Ames test ([2]; classification M+/M−)
+: Behavior of gene caused by administration of chemical substance ([1]; Gene No. 533, Rn.106184, group (C)) | Behavior of gene caused by administration of chemical substance ([1]; Gene No. 4846, Rn.144554, group (A)) | Behavior of gene caused by administration of chemical substance ([1]; Gene No. 5600, Rn.9836, group (A)) | Behavior of gene caused by administration of chemical substance ([1]; Gene No. 6182, Rn.5834, group (A))
